In patent US8080582B2, “Derivatives of 8-epiblechnic acid and their effects on down-regulation of endothelin (ETA) receptor mRNA” (ScinoPharm Taiwan Ltd., priority 2008, dated 2011):

Key:
Assay type in all cases: cell-based
ETAR protein expression = assay: Western blot of ETAR protein expression in vascular smooth muscle cells; details: 100 μg/ml, 48 hrs
Protocol: (§1) The smooth muscle cells (5×10^5 cells in 35 mm culture dish) were treated with Sal-B and its analogs for 48 hrs, and then a proteinase inhibitor solution was used to collect proteins from the cells.
(§2) The protein concentrations in the samples were calculated by using BSA as the standards to construct a standard curve. After mixing Bradford Protein assay reagent evenly with the standards or the samples, the OD595 absorption values were measured. Standard curve was constructed by plotting OD595 values of the BSA standards versus their concentrations. The protein concentrations of the samples were calculated from the standard curve.
(§3) Bio-Rad's Mini-Protean III Dual Slab Cell instrument was used. A 12% polyacrylamide separating gel solution was prepared and placed into a electrophoretic gel preparation device. Deionized water was added to flat the surface of the separating gel solution, and the water was poured off after the gel had coagulated. A stacking gel solution containing 5% polyacrylamide was added and then a comb was inserted. The comb was removed after the stacking gel had coagulated, and the gel was placed into an upright electrophoresis tank. A suitable amount of running buffer was added, and then the protein samples were loaded into the wells of stacking gel layer. […]

[1] = system: ETAR gene expression in MCF-7 cells; assay: PCR of ETAR gene expression in MCF-7 cancer cells; details: 48 hrs
Protocol: PC-3 and MCF-7 cancer cells were treated with Sal-B and EBA for 48 hrs, and the identical concentrations of cellular whole RNA were sampled for the synthesis of cDNA by using reverse transcriptase. The PCR method was then used to compare the amounts of endothelin receptor mRNA expression. While the PC-3 cells were treated with either Sal-B or EBA, its ETAR gene expression was not reduced.

PC-3 cancer cells = assay: Flow cytometry cell cycle analysis (sub-G1, apoptosis) of PC-3 cells; details: PC-3, 0.4 mM, 48 hrs, PI flow cytometry; control around 1.18%
Protocol: After suspending cells, the precooled 70% ethanol was used for fixing the cells. After centrifuging the mixture for 10 min. at 3,000 rpm, supernatant liquid was removed. Propidium iodide (PI) buffer (0.1% Triton X-100, 0.2 μg/ml RNase A, 40 μg/ml PI) was added, and then the solution was kept still at 37° C. for 30 min. After that, the cell cycle analysis was conducted by flow cytometry.
Flow cytometry was used to determine whether Sal-B and its analogs induced apoptosis in cancer cells. After treating PC-3 cancer cells with 0.4 mM Sal-B and EBA, and 0.01 mM compounds B and A for 48 hrs, the cells were collected and allowed to react with PI buffer for 30 min. Flow cytometry was then employed to measure the cell cycle. Approximately 5.16% of PC-3 cancer cells were at sub-G1 phase after treating with Sal-B, roughly 5.27% were at sub-G1 phase after treating with compound B, and roughly 8.54% were at sub-G1 phase after treating with compound A. However, for the control, only around 1.18% of the cells were at sub-G1 phase. Therefore, Sal-B and its analogs (compounds B and A) thus caused a significant increase in the percentage of cells at sub-G1 phase.

[2] = system: prostate cancer cells (PC-3); assay: MTT cell viability, prostate cancer cells; details: for Cell viability at higher concentrations: PC-3, 0.3 mM (or higher), 48 hrs, MTT
Protocol: The cells (1×10^5 cells/well in 24-well plates) were cultured for 24 hrs. Different concentrations of Sal-B and its analogs (0, 50, 100, 150, 200, 250 μg/ml) were added to treat the cells. After treating for 48 hrs, 100 μl MTT solution was added to each well, and the plate was placed in an incubator for 1-4 hrs. After adding 400 μl DMSO to treat the cells for 30 min., 200 μl samples were collected and placed in a 96-well plate to conduct the absorption measurement at 550 nm.
Cancer cells were treated with Sal-B and EBA at concentrations of 0, 0.1, 0.2, 0.3, 0.4, 0.5 mM. After treating for 48 hrs, MTT was added, and then allowed to react for 3 hrs at 37° C. After that, DMSO was added and allowed to react for 30 min., the OD570 absorption values were measured. Cell viability was above 80% when nasopharyngeal cancer cells (Hone-1) were treated with […] Sal-B and EBA. […] But the cell viability remained above 70% for treating with 0.1 mM and 0.2 mM EBA. Similar results were obtained when prostate cancer cells (PC-3) were treated with the drugs: Cell viability was above 80% for treating PC-3 cells with 0.2 mM Sal-B or EBA.
MTT testing was employed to observe the viability of cancer cells after treating with Sal-B and the six synthetic analogs.

ETBR protein expression = assay: Western blot of ETBR protein expression in vascular smooth muscle cells; details: 100 μg/ml, 48 hrs
Protocol: as §1, §2, §3

Compound | ETAR protein expression compared with control (ETAR protein expression) | ETAR gene (mRNA) expression [1] | PC-3 cancer cells at sub-G1 phase (PC-3 cancer cells) | Cell viability at higher concentrations [2] | Viability of PC-3 cells as the concentration is increased ([2]; PC-3, MTT, increasing concentration, FIG. 1) | ETBR protein expression compared with control (ETBR protein expression)
O=C(/C=C/c1ccc(O)c2c1[C@H](C(=O)O[C@H](Cc1ccc(O)c(O)c1)C(=O)[O-])[C@@H](c1ccc(O)c(O)c1)O2)O[C@H](Cc1ccc(O)c(O)c1)C(=O)[O-].[Mg+2] [Sal-B, magnesium lithospermate B] | significantly reduced | can reduce the expression of ETAR mRNA | Approximately 5.16% | the cell viability was reduced | reduced as the concentration of Sal-B was increased | no effect on ETBR protein expression
epiblechnic acid [EBA] | significantly reduced | reduced significantly | approximately 1.73% | did not significantly reduce the cell viability |  | no effect on ETBR protein expression
